# According to patent publication US7115633B2, “Benzosuberonylpiperdine compounds as analgesics” (GlaxoSmithKline S.p.A., priority 2000, dated 2006):
row,Compound,melting point
1,Cc1cccc(C2CCN(C[C@@H]3CCc4c(C)cccc4[C@H](O)C3)CC2)c1.Cl (racemic),> 250 °C
2,Cc1cccc(C2CCN(C[C@H]3CCc4c(Br)cccc4[C@H](O)C3)CC2)c1.Cl (racemic),> 250 °C
3,Cc1cccc2c1CC[C@@H](CN1CCC(c3ccccc3Cl)CC1)C[C@H]2O.Cl (racemic),> 250 °C
4,Cl.O[C@@H]1C[C@H](CN2CCC(c3ccccc3Cl)CC2)CCc2c(F)cccc21 (racemic),245 to 247 °C
5,Cc1ccccc1C1CCN(CC2CCc3c(F)cccc3C(O)C2)CC1.Cl (racemic),231 to 233 °C
